Read-outs that look alike come from different tables or passages of the source.
Experiments:
NDM-1 = NDM-1 (Klebsiella pneumoniae, UniProt C7C422); assay: biochemical; format: biochemical; conditions: read-out: NDM-1 IC50
IMP-1 = IMP-1 (Serratia marcescens, UniProt P52699); assay: biochemical; format: biochemical; conditions: read-out: IMP-1 IC50
VIM-1 = VIM-1 (Pseudomonas aeruginosa (strain ATCC 15692 / DSM 22644 / CIP 104116 / JCM 14847 / LMG 12228 / 1C / PRS 101 / PAO1), UniProt A0A0F7KYQ8); assay: Enzyme activity: determination of IC50, fluorescence assay with CCF2-FA substrate (VIM-1); format: biochemical
[1] = test system: Escherichia coli expressing NDM-1 (CLB30016); assay: Antibiotic potentiation activity: synergistic concentration (MITC95) with imipenem, OD600 growth; format: cell-based; conditions: for Escherichia coli expressing NDM-1 (CLB 30016) MITC95: concentration giving 95% inhibition of bacterial growth
In short: (§1)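 Steps: colonies grown overnight at 35 °C; resuspended in saline to OD600 0.11–0.15 by strain; diluted 1:100 into 1.1× CAMHB; imipenem then compound added (antibiotic 4 μg/ml in assay); incubated 35 °C for 22–24 h; absorbance measured.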

[2] = test system: Klebsiella pneumoniae expressing VIM-1 (IHMA599644); assay: as above; format: cell-based; conditions: for Klebsiella pneumoniae expressing VIM-1 (IHMA 599644) MITC95: concentration giving 95% inhibition of bacterial growth
In short: as §1

[3] = test system: Serratia marcescens expressing IMP-1 (CL5741); assay: as above; format: cell-based; conditions: for Serratia marcescens expressing IMP-1 (CL5741) MITC95: concentration giving 95% inhibition of bacterial growth
In short: as §1

[4] = NDM-1 enzyme, CCF2-FA substrate
[5] = IMP-1 enzyme, CCF2-FA substrate
[6] = VIM-1 enzyme, CCF2-FA substrate, read-out: VIM-1 IC50
[7] = (CLB30016, NDM-1), 95% growth inhibition
[8] = Klebsiella pneumoniae IHMA599644 (VIM-1), 95% growth inhibition
[9] = Serratia marcescens CL5741 (IMP-1), 95% growth inhibition
[10] = fluorescence assay with CCF2-FA substrate
[11] = fluorescence assay with CCF2-FA substrate, read-out: VIM-1 IC50
[12] = CLB30016 (NDM-1), 95% inhibition of bacterial growth
[13] = IHMA599644 (VIM-1), 95% inhibition of bacterial growth
[14] = CL5741 (IMP-1), 95% inhibition of bacterial growth
[15] = NDM-1 enzyme, CCF2-FA fluorescence assay
[16] = IMP-1 enzyme, CCF2-FA fluorescence assay
[17] = VIM-1 enzyme, CCF2-FA fluorescence assay, read-out: VIM-1 IC50
[18] = Escherichia coli expressing NDM-1 (CLB30016), 95% growth inhibition
[19] = Klebsiella pneumoniae expressing VIM-1 (IHMA599644), 95% growth inhibition
[20] = Serratia marcescens expressing IMP-1 (CL5741), 95% growth inhibition
[21] = VIM-1 IC50, fluorescence assay with CCF2-FA substrate

NDM-1, sequence (C7C422 whole entry, looked up, species assumed): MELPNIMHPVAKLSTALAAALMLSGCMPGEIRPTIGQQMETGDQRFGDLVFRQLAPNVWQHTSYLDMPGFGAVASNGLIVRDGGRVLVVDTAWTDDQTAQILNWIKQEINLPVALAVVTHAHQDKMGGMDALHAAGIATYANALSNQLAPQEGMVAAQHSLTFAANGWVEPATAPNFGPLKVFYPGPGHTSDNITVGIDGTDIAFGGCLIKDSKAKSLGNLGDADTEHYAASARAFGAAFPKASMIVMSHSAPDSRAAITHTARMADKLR
IMP-1, sequence (P52699 whole entry, looked up): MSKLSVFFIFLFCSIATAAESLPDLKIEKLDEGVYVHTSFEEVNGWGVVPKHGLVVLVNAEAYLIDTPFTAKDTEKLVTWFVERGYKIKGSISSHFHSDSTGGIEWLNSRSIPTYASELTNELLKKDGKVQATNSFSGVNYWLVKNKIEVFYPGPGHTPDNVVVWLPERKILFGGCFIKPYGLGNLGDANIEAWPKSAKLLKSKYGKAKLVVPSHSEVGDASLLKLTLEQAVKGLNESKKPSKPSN

SMILES	IC50 (NDM-1; [4])	IC50 (IMP-1; [5])	IC50 (VIM-1; [6])	Escherichia coli MITC95 [1, 7]	Klebsiella pneumoniae MITC95 [2, 8]	Serratia marcescens MITC95 [3, 9]	IC50 (NDM-1; [10])	IC50 (IMP-1; [10])	further results
NCC1COc2ccc(-c3ccc(C(F)(F)F)c(S(N)(=O)=O)c3-c3nnn[nH]3)cc21 (stereo not drawn) [Example 733, 3-[3-(aminomethyl)-2,3-dihydro-1-benzofuran-5-yl]-2-(1H-tetrazol-5-yl)-6-(trifluoromethyl)benzenesulfon-amide]	33.5 nM	34.3 nM	1.47 nM	12.5 µM	6.25 µM	25 µM			
NS(=O)(=O)c1nccc(N2CCC(N3CC[C@H](O)C3)CC2)c1-c1nnn[nH]1 [Example 226, 4-{4-[(3S)-3-hydroxypyrrolidin-1-yl]piperidin-1-yl}-3-(1H-tetrazol-5-yl)pyridine-2-sulfonamide]							481 nM	3870 nM	IC50 (VIM-1; [11]): 710 nM; Escherichia coli expressing NDM-1 (CLB 30016) MITC95 [1]: 6.25 µM; Klebsiella pneumoniae expressing VIM-1 (IHMA 599644) MITC95 [2]: 12.5 µM; Serratia marcescens expressing IMP-1 (CL5741) MITC95 [3]: 50 µM
Nc1nccc2cc(-c3ccc(C(F)(F)F)c(S(N)(=O)=O)c3-c3nnn[nH]3)ccc12 [Example 751, 3-(1-aminoisoquinolin-6-yl)-2-(1H-tetrazol-5-yl)-6-(trifluoromethyl)benzenesulfon-amide]							0.962 nM	5.63 nM	IC50 (VIM-1; [11]): 0.108 nM; Escherichia coli MITC95 [1, 12]: 0.7813 µM; Klebsiella pneumoniae MITC95 [2, 13]: 3.125 µM; Serratia marcescens MITC95 [3, 14]: 3.125 µM
NS(=O)(=O)c1c(C(F)(F)F)ccc(-c2cccc(N3CCCC(O)C3)c2)c1-c1nnn[nH]1 (stereo not drawn) [Example 739, 3′-(3-hydroxypiperidin-1-yl)-2-(1H-tetrazol-5-yl)-4-(trifluoromethyl)biphenyl-3-sulfonamide]	3.84 nM	6.82 nM	2.77 nM	25 µM	>200 µM	25 µM			
Cc1ccc(-c2ccc(C(F)(F)F)c(S(N)(=O)=O)c2-c2nnn[nH]2)c2[nH]c(N)nc12 [Example 568, 3-(2-amino-4-methyl-1H-benzo[d]imidazol-7-yl)-2-(1H-tetrazol-5-yl)-6-(trifluoromethyl)benzenesulfonamide]	0.0983 nM	1.17 nM	0.161 nM	0.3906 µM	1.563 µM	1.563 µM			
NC1CCC(N[C@H]2CC[C@H](c3ccc(C(F)(F)F)c(S(N)(=O)=O)c3-c3nnn[nH]3)CC2)CC1 (stereo partly drawn) [Example 690, 3-{4-[(4-aminocyclohexyl)amino]cyclohexyl}-2-(1H-tetrazol-5-yl)-6-(trifluoromethyl)benzene sulfonamide]	12.6 nM	75.9 nM		1.563 µM	25 µM	3.125 µM			IC50 (VIM-1; VIM-1 IC50, VIM-1 enzyme, CCF2-FA substrate): 5.26 nM
NCc1ccc(-c2ccc(CC3CCNCC3)c(S(N)(=O)=O)c2-c2nn[nH]n2)cc1 [Example 593, 4′-(aminomethyl)-4-(piperidin-4-ylmethyl)-2-(2H-tetrazol-5-yl)biphenyl-3-sulfonamide]	38.2 nM	273 nM	31.6 nM	1.563 µM	3.125 µM	6.25 µM			
CN(C)CCCCNCc1ccc(-c2cccc(S(N)(=O)=O)c2-c2nnn[nH]2)cc1 [Example 356, 4′-({[4-(dimethylamino)butyl]amino}methyl)-2-(1H-tetrazol-5-yl)biphenyl-3-sulfonamide]									IC50 (NDM-1; [15]): 24.1 nM; IC50 (IMP-1; [16]): 1540 nM; IC50 (VIM-1; [17]): 646 nM; Escherichia coli MITC95 [1, 18]: 1.563 µM; Klebsiella pneumoniae MITC95 [2, 19]: 75 µM; Serratia marcescens MITC95 [3, 20]: 12.5 µM
NS(=O)(=O)c1cccc(-c2cccc3scnc23)c1-c1nnn[nH]1 [Example 422, 3-(Benzo[d]thiazol-4-yl)-2-(1H-tetrazol-5-yl)benzenesulfonamide]									IC50 (NDM-1; [15]): 1.3 nM; IC50 (IMP-1; [16]): 56 nM; IC50 (VIM-1; [17]): 22.6 nM; Escherichia coli MITC95 [1, 18]: 3.125 µM; Klebsiella pneumoniae MITC95 [2, 19]: 100 µM; Serratia marcescens MITC95 [3, 20]: 25 µM
Cc1nc(N)ccc1Cc1cccc(S(N)(=O)=O)c1-c1nn[nH]n1 [Example 572, 3-((6-amino-2-methylpyridin-3-yl)methyl)-2-(2H-tetrazol-5-yl)benzenesulfonamide]	14.7 nM	701 nM	8.98 nM	0.5859 µM	6.25 µM	25 µM			
NS(=O)(=O)c1cccc(-c2cccc3c2CNC3=O)c1-c1nnn[nH]1 [Example 120, 3-(1-oxoisoindolin-4-yl)-2-(1H-tetrazol-5-yl)benzenesulfonamide]							1.42 nM	777 nM	IC50 (VIM-1; [21]): 4.99 nM; Escherichia coli expressing NDM-1 (CLB 30016) MITC95 [1]: 0.7813 µM; Klebsiella pneumoniae expressing VIM-1 (IHMA 599644) MITC95 [2]: 4.688 µM; Serratia marcescens expressing IMP-1 (CL5741) MITC95 [3]: 18.75 µM
NS(=O)(=O)c1c(C(F)(F)F)ccc(N2C[C@@H](O)[C@H](O)C2)c1-c1nnn[nH]1 [Example 756, 3-[(3R,4R)-3,4-dihydroxypyrrolidin-1-yl]-2-(1H-tetrazol-5-yl)-6-(trifluoromethyl) benzenesulfonamide]							78.1 nM	89.1 nM	IC50 (VIM-1; [21]): 339 nM; Escherichia coli MITC95 [1, 12]: 12.5 µM; Klebsiella pneumoniae MITC95 [2, 13]: >200 µM; Serratia marcescens MITC95 [3, 14]: 12.5 µM
NS(=O)(=O)c1cccc(-c2ccc(C3(O)CCNC3)cc2)c1-c1nn[nH]n1 (stereo not drawn) [Example 284, 4′-(3-hydroxypyrrolidin-3-yl)-2-(2H-tetrazol-5-yl)-[1,1′-biphenyl]-3-sulfonamide]									IC50 (NDM-1; [15]): 12.7 nM; IC50 (IMP-1; [16]): 102 nM; IC50 (VIM-1; [17]): 55.5 nM; Escherichia coli MITC95 [1, 18]: 0.7813 µM; Klebsiella pneumoniae MITC95 [2, 19]: 4.688 µM; Serratia marcescens MITC95 [3, 20]: 1.563 µM
Cc1ccc(-c2ccc(Cl)c(S(N)(=O)=O)c2-c2nn[nH]n2)cc1 [Example 263, 4-chloro-4′-methyl-2-(2H-tetrazol-5-yl)-[1,1′-biphenyl]-3-sulfonamide]									IC50 (NDM-1; [15]): 3.27 nM; IC50 (IMP-1; [16]): 21 nM; IC50 (VIM-1; [17]): 11.5 nM; Escherichia coli MITC95 [1, 18]: 0.7813 µM; Klebsiella pneumoniae MITC95 [2, 19]: 18.75 µM; Serratia marcescens MITC95 [3, 20]: 0.7813 µM
NS(=O)(=O)c1cccc(C2CCC2)c1-c1nnn[nH]1 [Example 149, 3-cyclobutyl-2-(1H-tetrazol-5-yl)benzenesulfonamide]							23.7 nM	493 nM	IC50 (VIM-1; [11]): 861 nM; Escherichia coli expressing NDM-1 (CLB 30016) MITC95 [1]: 1.563 µM; Klebsiella pneumoniae expressing VIM-1 (IHMA 599644) MITC95 [2]: 150 µM; Serratia marcescens expressing IMP-1 (CL5741) MITC95 [3]: 6.25 µM
NC[C@H]1CC[C@H](Cc2ccc(-c3ccc(C4CCNC4)cc3)c(-c3nnn[nH]3)c2S(N)(=O)=O)CC1 (stereo partly drawn) [Example 586, 4-(((1r,4r)-4-(aminomethyl)cyclohexyl)methyl)-4′-(pyrrolidin-3-yl)-2-(1H-tetrazol-5-yl)-[1,1′-biphenyl]-3-sulfonamide]	2.34 nM	7.14 nM	1.16 nM	0.7813 µM	1.563 µM	1.563 µM			
NS(=O)(=O)c1cccc(-c2ccc(C3CCN(CC4CCNC4)CC3)cc2)c1-c1nnn[nH]1 (stereo not drawn) [Example 618, 3-[4-[1-(pyrrolidin-3-ylmethyl)-4-piperidyl]phenyl]-2-(1H-tetrazol-5-yl)benzenesulfonamide]	11.7 nM	16.1 nM	345 nM	0.3906 µM	75 µM	0.3906 µM			
C[C@@H](O)[C@H](NCc1ccc(-c2cccc(S(N)(=O)=O)c2-c2nnn[nH]2)cc1)C(=O)O [Example 357, N-{[3′-sulfamoyl-2′-(1H-tetrazol-5-yl)biphenyl-4-yl]methyl}-L-threonine]									IC50 (NDM-1; [15]): 12.5 nM; IC50 (IMP-1; [16]): 182 nM; IC50 (VIM-1; [17]): 287 nM; Escherichia coli MITC95 [1, 18]: 3.125 µM; Klebsiella pneumoniae MITC95 [2, 19]: 25 µM; Serratia marcescens MITC95 [3, 20]: 4.688 µM
N[C@@H]1CN(c2ccc(C(F)(F)F)c(S(N)(=O)=O)c2-c2nnn[nH]2)CC12CC2 [Example 754, 3-[(7S)-7-amino-5-azaspiro[2.4]hept-5-yl]-2-(1H-tetrazol-5-yl)-6-(trifluoromethyl) benzenesulfonamide]							596 nM	869 nM	IC50 (VIM-1; [11]): 7.67 nM; Escherichia coli MITC95 [1, 12]: 25 µM; Klebsiella pneumoniae MITC95 [2, 13]: 12.5 µM; Serratia marcescens MITC95 [3, 14]: 50 µM
